The text below walks through data of patent publication US20250002918A1, “COMPOSITIONS AND METHODS FOR TREATMENT OF MIC60 DEPLETED CANCERS AND METASTASIS” (The Wistar Institute of Anatomy and Biology, priority 2021, published 2025).

For experiment [1], the system named is PC3 cells transduced with pLKO or shMic60. Nature of the experiment: Tumor cell proliferation. The experiment is classed as cell-based. As to conditions: for suppression of proliferation, Mic60-depleted vs control transfectants: PC3 cells.
Experiment [2] concerns PC3 cells stably transduced with pLKO or Mic60-directed shRNA (shMic60). Nature of the experiment: Small-molecule drug screening, cell viability (CellTiterGlo). The conditions noted are these: drug screen, 72-h incubation, based on IC50 values (FIG. 4A, 4B). The method, then:
(§1) FIG. 4A-FIG. 4I show therapeutic vulnerability of GCN2/Akt signaling exposed by Mic60 depletion. (FIG. 4A and FIG. 4B) PC3 cells transduced with pLKO or shMic60 were analyzed in a high-throughput drug screening (FIG. 4A), and candidate compounds with differential tumor cell killing in shCtrl- or shMic60-transduced cultures (FIG. 4B) were analyzed based on IC50 values (nM). (FIG. 4C) PC3 cells transfected with siMic60 were analyzed for differential ISR gene expression by RNA-Seq. A representative experiment is shown. (FIG. 4D) PC3 cells transfected with siCtrl or siMic60 were analyzed by Western blotting. p, phosphorylated. (FIG. 4E) PC3 cells as in FIG. 4A and FIG. 4B were transfected with ATF4-mScarlet nuclear reporter gene and analyzed by flow cytometry in two independent experiments (Exp). The percentage of cells in gated regions is indicated. (FIG. 4F) Kaplan-Meier survival curves for differential expression of DDIT3 or ATF4 in Mic60-low GBM or pan-kidney cancer cohort comprising kidney chromophobe, kidney renal clear cell carcinoma, and kidney renal papillary cell carcinoma (KIPAN) in the Human Protein Atlas database. The number of patients per each condition and P values are indicated. (FIG. 4G) PC3 cells as in FIG. 4A and FIG. 4B were incubated with vehicle (Veh) or GCN2-IN-1 small-molecule inhibitor to GCN2 and analyzed for Annexin V/PI staining by multiparametric flow cytometry. The percentage of cells in each quadrant is indicated in a representative experiment (n=2). (FIG. 4H) PC3 cells were transfected with siCtrl or GCN2-directed siRNA (siGCN2) and analyzed by Western blotting. (FIG. 4I) PC3 cells were transfected with siCtrl or GCN2-directed siRNA (siGCN2) and analyzed for cell death by Trypan blue exclusion and light microscopy after 72 h. Mean±SD.
Cell viability screening against the MedChem Express anti-cancer library (1,820 compounds) was performed using CellTiterGlo (Promega). PC3 cells stably transduced with pLKO or Mic60-directed shRNA (shMic60) were maintained in complete media, trypsinized, and plated (500 cells/well) in 40 μL of complete medium the day before the experiment in white, clear-bottom 384-well plates. A total of 50 nL of test compound was added to each well using the Janus MDT Nanohead (Perkin-Elmer). Each compound was screened at a final concentration of 10, 1, 0.1, and 0.01 μM. After a 72-h incubation at 37° C. in the presence of 5% CO2, 20 μL of the CellTiterGlo reagent was added to each well. After 15 min, luminescence was measured using the Envision Multimode plate reader (PerkinElmer). The raw data were normalized to % inhibition, where 0% is the relative light units (RLU) in the presence of dimethylsulfoxide, and 100% is the RLU in the presence of 1 μM bortezomib. Estimated half maximal inhibitory concentration (IC50) values for each compound were determined using nonlinear regression fits on the data to a one-site binding model in XlFit (ID Business Solutions Ltd. [IDBS]). Because only 4 data points were used in this calculation, the top and bottom of the curve was fixed to 100% and 0%, respectively, with a constant slope value of 1.
(In ATP-based viability assays light output follows the ATP content of the culture.)

The subject of experiment [3] is Mic60-silenced tumor cells. Nature of the experiment: Focal adhesion (FA) dynamics after Mic60 silencing. Type of experiment: cell-based.
A further experiment relates to PC3 cells. Nature of the experiment: Single-cell motility by time-lapse videomicroscopy. The experiment is classed as cell-based. The conditions noted are these: Mic60-silenced PC3 cells vs control transfectants. The protocol:
(§2) Cells ([…]) were seeded in 4-well Ph+ Chambers (Ibidi) in complete growth medium and allowed to attach for 16 h at 37° C. Time-lapse videomicroscopy was performed over 10 h, with a time-lapse interval of 10 min. Stacks were imported into Image J Fiji software for analysis, and at least 10 to 20 cells per condition were tracked using the Manual Tracking plugin for Image J Fiji. Tracking data were exported into the Chemotaxis and Migration Tool v. 2.0 (Ibidi) for graphing and calculation of the mean and SD of speed and accumulated distance of movement. For directional cell migration, wounds were made in monolayers of PC3 cells using a 10-μL pipette tip. Cell debris were washed off, and cultures were maintained in complete growth medium containing 10% fetal bovine serum at 37° C. and 5% CO2. Time-lapse imaging of migrating cells was performed using a TE300 inverted microscope (Nikon) equipped with an incubator set at 37° C., 5% CO2, and 95% relative humidity. Each image was acquired using a 10× objective of the same fields at each 10-min interval for a total of 24 h.

The test system of a further experiment is LN229 cells. Nature of the experiment: Single-cell motility by time-lapse videomicroscopy. Type of experiment: cell-based. The conditions noted are these: Mic60-silenced LN229 cells vs control transfectants. The protocol: as §2
Experiment [4] concerns PC3 cells transduced with pLKO or shMic60. Nature of the experiment: Annexin V/PI staining by multiparametric flow cytometry. The conditions noted are these: preferentially in Mic60-silenced PC3 cells compared to control cultures (FIG. 4G). Type of experiment: cell-based. The method, then:
as §1, with “(FIG. 4F) Kaplan-Meier survival curves for differential expression of DDIT3 or ATF4 in Mic60-low GBM or pan-kidney cancer cohort comprising kidney chromophobe, kidney renal clear cell carcinoma, and kidney renal papillary cell carcinoma (KIPAN) in the Human Protein Atlas database. The number of patients per each condition and P values are indicated.” left out, “The percentage of cells in each quadrant is indicated in a representative experiment (n=2).” left out, “Mean±SD.” left out
(Flow cytometry measures light scatter and fluorescence of single cells or particles in a stream.)

Experiment [5] has the same test system. Nature of the experiment: Caspase-dependent cell death. Type of experiment: cell-based.
For the next experiment, the system named is Mic60-silenced cells. Kind of experiment: Tumor cell invasion (Matrigel). Type of experiment: cell-based. As to conditions: Mic60-silenced cells reconstituted with the scavenger. The protocol:
FIG. 3A-FIG. 3G show Mic60 regulation of tumor cell motility and metastasis. (FIG. 3A) PC3 cells transduced with pLKO or shMic60 were analyzed for circularity (Top; 1=perfect sphere) and surface area (Bottom). Each symbol corresponds to an individual determination. Min to max values are indicated (pLKO, n=36; shMic60, n=39). *** P<0.0001 to 0.0009. (FIG. 3B) PC3 cells as in FIG. 3A were analyzed by Western blotting. (FIG. 3C) PC3 cells transduced with pLKO or shMic60 were analyzed for single-cell motility in 2D contour plots by time-lapse video microscopy. Each tracing corresponds to the movements of an individual cell (pLKO, n=90; shMic60, n=94). The average speed of cell movements (velocity [Vel], μm/min) and distance traveled (Dis; μm) are indicated. Mean±SD (n=3). P<0.0001. […] (FIG. 3D) PC3 cells as in FIG. 3A or WT or Mic60 KO PC3 cells were analyzed for invasion across Matrigel-coated inserts and quantified. […] (FIG. 3F) PC3 cells as in FIG. 3A were injected into the spleen of NSG mice, and liver samples harvested after 11 d were stained with hematoxylin/eosin, and the number (FIG. 3F, Top) and surface area (FIG. 3F, Bottom) of metastatic foci were quantified by morphometry. […] (FIG. 3G) Matched patient samples of LUAD representative of normal parenchyma (N), primary tumor (P), or metastasis (M) were analyzed for differential Mic60 expression by RT-PCR. […]

Consider `O=c1[nH]c2ccccc2n1C1CCN(Cc2ccc(-c3nc4cc5[nH]cnc5cc4nc3-c3ccccc3)cc2)CC1` [Akt inhibitor VIII], for which, in experiment [1], the “suppression of proliferation, Mic60-depleted vs control transfectants” value is on record as “suppressed proliferation selectively of Mic60-depleted PC3 cells”. For the same molecule, in experiment [2], the “differential tumor cell killing, Mic60-silenced vs control cultures” value (“differential tumor cell killing” below) is on record as “killed Mic60-silenced PC3 cells more efficiently than control cultures”. On to `CN(c1ncccc1CNc1nc(Nc2ccc3c(c2)CC(=O)N3)ncc1C(F)(F)F)S(C)(=O)=O` [FAKi], for which the FA dynamics result in experiment [3] was “normalized FA dynamics”. Further, the single-cell motility result in the experiment with PC3 cells and in the experiment on LN229 cells was “restored the single-cell motility of PC3 or LN229 cells to levels of control transfectants” each time. Take `c1nn(C2CCOCC2)cc1Nc1ncc2nnn(-c3ccc4cn[nH]c4c3)c2n1` [GCN2-IN-1]: the “proliferation (cell number) with GCN2 inhibitor” value in experiment [1] (pLKO control PC3 cells) was 3.3×10^5±0.62×10^5 cells; in experiment [1] (shMic60 PC3 cells, P=0.009 vs pLKO), 1.95×10^5±0.4×10^5 cells. In addition, the “differential tumor cell killing” value in experiment [2] was “killed Mic60-silenced PC3 cells more efficiently than control cultures”. In addition, the “Annexin V-associated apoptosis” value in experiment [4] was “activated Annexin V-associated apoptosis”. In addition, the caspase-dependent cell death in experiment [5] (pLKO control PC3 cells) is recorded as 8.4±6.3%; in experiment [5] (shMic60 PC3 cells, P=0.04 vs pLKO), 23.1±5.6%. `NC1(c2ccc(-c3nc4ccn5c(=O)[nH]nc5c4cc3-c3ccccc3)cc2)CCC1` [MK2206]: in experiment [1], the “suppression of proliferation, Mic60-depleted vs control transfectants” value is listed as “suppressed proliferation selectively of Mic60-depleted PC3 cells”. Consider `CC1(C)CC(NC(=O)C[P+](c2ccccc2)(c2ccccc2)c2ccccc2)CC(C)(C)N1[O]` [MitoTempo], for which, in the experiment with Mic60-silenced cells, the tumor cell invasion result is recorded as “normalized tumor cell invasion to control levels”.

As for `C/C(=N\NC(=S)N1CCC1)c1ccccn1` [NSC319726], the “differential tumor cell killing” value in experiment [2] is “preferential killing against Mic60-low PC3 cells”. Still for that read-out and setting: in the case of `CS(=O)(=O)N1CCC(NC(=O)c2[nH]ncc2NC(=O)c2c(Cl)cccc2Cl)CC1` [NVP-LCQ195] it was “preferential killing against Mic60-low PC3 cells”; in that of `CC1(C)CCC(c2ccc(Cl)cc2)=C(CN2CCN(c3ccc(C(=O)NS(=O)(=O)c4ccc(N[C@H](CCN5CCOCC5)CSc5ccccc5)c(S(=O)(=O)C(F)(F)F)c4)cc3)CC2)C1` [Navitoclax], “preferential killing against Mic60-low PC3 cells”. On the same count and under the same terms, to `C/C(=N\NC(=O)c1cccc(S(=O)(=O)N2CCOCC2)c1)c1cc(Cl)ccc1O` [SP2509] belongs “preferential killing against Mic60-low PC3 cells”; to `COc1cc2c(cc1OC)CN(CCc1ccc(NC(=O)c3cc(OC)c(OC)cc3NC(=O)c3cnc4ccccc4c3)cc1)CC2` [Tariquidar], “preferential killing against Mic60-low PC3 cells”.

Regarding `COc1cc(/C=C/C(=O)CC(=O)/C=C/c2ccc(O)c(OC)c2)ccc1O` [curcumin], the “differential tumor cell killing” value in experiment [2] is given as “preferential killing against Mic60-low PC3 cells”. Same read-out and setting: in the case of `COc1cc([C@@H]2c3cc4c(cc3[C@H](O)[C@H]3COC(=O)[C@H]23)OCO4)cc(OC)c1OC` [podophyllotoxin] it was “preferential killing against Mic60-low PC3 cells”.
